Laboratory results published in patent US6908927B2, “Pyridopyranoazepine derivatives, their preparation and their therapeutic application” (Sanofi-Synthelabo, priority 1999, dated 2005).
Structures can show the parent of a compound that is named as a salt.

**Q.** Which melting point does the source give for `CCC1c2ncccc2OC2CCN3CCC21C3` (racemic) (as salt: HBr) here?
**A.** 170 °C (dec.)
